Common to all, as to assay: DNS reducing sugar assay on acid-swollen cellulose
What all share (assay type): biochemical

One assay deals with T1, EngH (Clostridium cellulovorans, UniProt O65987).
T1 construct: HisTrap purified from supernatant; trigger factor tag removed by HRV-3C protease
T1 sequence (O65987 14-715): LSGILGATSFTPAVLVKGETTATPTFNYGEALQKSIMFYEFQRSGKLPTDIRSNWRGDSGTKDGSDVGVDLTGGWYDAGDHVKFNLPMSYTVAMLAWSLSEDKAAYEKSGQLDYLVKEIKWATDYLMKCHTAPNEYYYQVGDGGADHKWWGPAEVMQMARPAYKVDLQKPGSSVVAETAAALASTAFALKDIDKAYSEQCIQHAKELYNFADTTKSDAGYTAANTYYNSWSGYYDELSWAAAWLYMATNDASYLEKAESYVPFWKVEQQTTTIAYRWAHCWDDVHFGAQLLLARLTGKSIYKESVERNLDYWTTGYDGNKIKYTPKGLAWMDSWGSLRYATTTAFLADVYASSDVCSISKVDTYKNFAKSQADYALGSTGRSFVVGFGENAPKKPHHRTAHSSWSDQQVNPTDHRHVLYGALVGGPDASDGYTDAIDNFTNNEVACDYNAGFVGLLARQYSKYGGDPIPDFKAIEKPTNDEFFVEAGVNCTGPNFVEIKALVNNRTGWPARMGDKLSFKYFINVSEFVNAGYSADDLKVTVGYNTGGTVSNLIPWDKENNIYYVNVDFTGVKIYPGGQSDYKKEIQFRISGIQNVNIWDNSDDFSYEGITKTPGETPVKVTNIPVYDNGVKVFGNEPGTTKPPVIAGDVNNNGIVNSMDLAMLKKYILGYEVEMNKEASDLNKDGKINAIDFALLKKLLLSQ
As to conditions: 5 mg/ml cellobiose; 0.5 % acid-swollen cellulose, 20 nmol/ml enzyme alone, 50 mM acetate pH 6.3, 2.5 mM CaCl2, 37 C. An excerpt:
DNS reducing sugar assay on acid-swollen cellulose on EngH

In the next assay the target is T2, ExgS (Clostridium cellulovorans, UniProt D9SS72).
T2 construct: gene Clocel_2823; dockerin-bearing cellulosomal subunit
T2 sequence (D9SS72 1-727): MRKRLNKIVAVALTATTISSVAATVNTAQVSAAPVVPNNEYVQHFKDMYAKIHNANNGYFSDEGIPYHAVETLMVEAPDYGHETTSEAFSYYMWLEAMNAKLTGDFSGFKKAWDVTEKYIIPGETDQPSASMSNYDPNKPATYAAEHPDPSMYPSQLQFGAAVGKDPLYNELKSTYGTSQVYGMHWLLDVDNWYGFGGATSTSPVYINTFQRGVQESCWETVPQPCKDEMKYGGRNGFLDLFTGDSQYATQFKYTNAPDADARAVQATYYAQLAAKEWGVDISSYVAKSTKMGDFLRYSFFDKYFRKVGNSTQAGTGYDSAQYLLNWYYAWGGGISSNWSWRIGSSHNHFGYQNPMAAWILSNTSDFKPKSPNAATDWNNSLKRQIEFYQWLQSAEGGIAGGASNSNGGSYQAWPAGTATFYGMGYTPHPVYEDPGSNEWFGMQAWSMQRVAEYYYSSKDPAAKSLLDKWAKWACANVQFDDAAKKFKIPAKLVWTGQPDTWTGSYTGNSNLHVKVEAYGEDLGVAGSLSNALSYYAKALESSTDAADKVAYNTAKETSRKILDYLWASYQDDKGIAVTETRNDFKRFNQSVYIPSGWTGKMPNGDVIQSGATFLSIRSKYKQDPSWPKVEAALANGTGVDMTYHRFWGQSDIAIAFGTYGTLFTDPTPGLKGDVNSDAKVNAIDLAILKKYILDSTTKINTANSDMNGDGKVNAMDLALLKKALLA
Conditions: 5 mg/ml cellobiose; 0.5 % acid-swollen cellulose, 20 nmol/ml enzyme alone, 50 mM acetate pH 6.3, 2.5 mM CaCl2, 37 C. An excerpt: DNS reducing sugar assay on acid-swollen cellulose on ExgS

Another assay concerns the target T3, EngK (Clostridium cellulovorans, UniProt D9SS70).
T3 construct: gene Clocel_2821
T3 sequence (D9SS70 1-892 limits assumed): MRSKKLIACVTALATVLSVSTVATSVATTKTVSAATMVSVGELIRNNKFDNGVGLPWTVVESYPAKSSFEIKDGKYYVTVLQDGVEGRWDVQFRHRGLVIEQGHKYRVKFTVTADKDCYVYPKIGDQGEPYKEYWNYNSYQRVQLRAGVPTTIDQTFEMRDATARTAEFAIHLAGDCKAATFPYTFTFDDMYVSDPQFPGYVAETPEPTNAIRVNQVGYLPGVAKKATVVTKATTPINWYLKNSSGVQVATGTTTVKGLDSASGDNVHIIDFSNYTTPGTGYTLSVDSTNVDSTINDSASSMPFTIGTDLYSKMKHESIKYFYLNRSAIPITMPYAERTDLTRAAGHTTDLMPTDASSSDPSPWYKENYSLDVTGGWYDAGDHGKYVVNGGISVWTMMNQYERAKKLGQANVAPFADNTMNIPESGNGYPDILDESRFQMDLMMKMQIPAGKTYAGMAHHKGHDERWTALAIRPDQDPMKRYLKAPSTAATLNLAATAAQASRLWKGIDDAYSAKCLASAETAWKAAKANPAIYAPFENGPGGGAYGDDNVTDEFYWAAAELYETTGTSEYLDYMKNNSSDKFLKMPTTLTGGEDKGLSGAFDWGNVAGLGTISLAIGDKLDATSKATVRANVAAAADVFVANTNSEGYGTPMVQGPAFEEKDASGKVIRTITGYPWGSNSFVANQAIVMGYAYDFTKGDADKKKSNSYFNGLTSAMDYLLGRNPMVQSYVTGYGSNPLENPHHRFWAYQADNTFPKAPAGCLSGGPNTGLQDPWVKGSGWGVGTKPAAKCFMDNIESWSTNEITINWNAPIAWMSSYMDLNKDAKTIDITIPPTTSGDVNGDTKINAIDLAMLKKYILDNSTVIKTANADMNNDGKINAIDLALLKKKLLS
Conditions: 5 mg/ml cellobiose; 0.5 % acid-swollen cellulose, 20 nmol/ml enzyme alone, 50 mM acetate pH 6.3, 2.5 mM CaCl2, 37 C; cellobiose also main product. From the text: DNS reducing sugar assay on acid-swollen cellulose on EngK

Structures are written as SMILES.

As to `OC[C@H]1O[C@@H](O[C@H]2[C@H](O)[C@@H](O)C(O)O[C@@H]2CO)[C@H](O)[C@@H](O)[C@@H]1O` (stereo partly drawn) [cellobiose], the figures for the “Inhibition rate (%)” value at EngH, at ExgS and at EngK were 98.7%, 98.5% and 90.1%, respectively.
